Data: US6642216B2, “Isoprenoid pathway inhibitors for stimulating bone growth” (ZymoGenetics Corporation, priority 1996, dated 2003)

Experiments:
[1] = system: serum response element (SRE)-luciferase reporter gene / CRE-luciferase reporter gene; assay: negative control OBSRE (SRE-luciferase) and/or glucagon (CRE-luciferase) assays; assay type: cell-based, murine
Source text: In the negative control OBSRE assay, a murine osteoblast cell line, such as CCC-4 expressing a serum response element (SRE)-luciferase reporter gene is used (see WO96/07733). In the negative control glucagon assay, a glucagon receptor-positive BHK cell expressing a CRE-luciferase reporter gene is used (see U.S. Pat. No. 5,698,672).

[2] = system: BMP-2 promoter; assay: ABA assay: BMP-2 promoter-luciferase reporter in 2T3-BMP-2-LUC osteoblast cells; assay type: cell-based, mouse
Procedure: These transformed cells are then evaluated for the production of the reporter gene product; compounds that activate the BMP promoter will drive production of the reporter protein, which can be readily assayed.
The cells were cultured using α-MEM, 10% FCS with 1% penicillin/streptomycin and 1% glutamine (“plating medium”), and were split 1:5 once per week. For the assay, the cells were resuspended in a plating medium containing 4% FCS, plated in microtiter plates at a concentration of 5×10^3 cells (in 50 μl)/well, and incubated for 24 hours at 37° C. in 5% CO2. To initiate the assay, 50 μl of the test compound or the control in DMSO was added at 2× concentration to each well, so that the final volume was 100 μl. The final serum concentration was 2% FCS, and the final DMSO concentration was 1%.
The treated cells were incubated for 24 hours at 37° C. and 5% CO2. The medium was then removed, and the cells were rinsed three times with PBS. After removal of excess PBS, 25 μl of 1× cell culture lysing reagent (Promega #E153A) was added to each well and incubated for at least ten minutes. Optionally, the plates/samples could be frozen at this point. To each well was added 50 μl of luciferase substrate (Promega #E152A; 10 ml Promega luciferase assay buffer per 7 mg Promega luciferase assay substrate). Luminescence was measured on an automated 96-well luminometer, and was expressed as either picograms of luciferase activity per well or as picograms of luciferase activity per microgram of protein.
Alternatively, the reactivity of a compound to be tested can be compared directly to a negative control containing no compound.

[3] = system: murine calvariae; conditions: reports by R. G. G. Russell and colleagues; cited from earlier work
[4] = Experiment 2, 0.097656 μM, 0.038085 μg/ml
[5] = Experiment 2, 0.195312 μM, 0.076171 μg/ml
[6] = Experiment 2, 0.390625 μM, 0.152343 μg/ml
[7] = Experiment 2, 0.78125 μM, 0.304687 μg/ml
[8] = Experiment 2, 1.5625 μM, 0.609375 μg/ml
[9] = Experiment 2, 3.125 μM, 1.21875 μg/ml
[10] = Experiment 2, 6.25 μM, 2.4375 μg/ml
[11] = Experiment 2, 12.5 μM, 4.875 μg/ml
[12] = Experiment 2, 25 μM, 9.75 μg/ml
[13] = Experiment 2, 50 μM, 19.5 μg/ml

With `CCC(C)(C)C(=O)O[C@H]1C[C@@H](C)C=C2C=C[C@H](C)[C@H](CC[C@@H](O)C[C@@H](O)CC(=O)O)[C@H]21` [Hydrolyzed simvastatin, hydrolyzed simvastatin] the “dose-dependent stimulatory effect in control assays” value [1] was “not in control assays”, the “dose-dependent stimulatory effect in the ABA assay” value [2] was “dose-dependent stimulatory effect” and the “% 59-0008 Response” value ([2]; Experiment 1, 0.195312 μg/ml) was −0.680%. The “Fold increase over negative control” value ([2]; Experiment 1, 0.195312 μg/ml) was 0.9 fold, the “% 59-0008 Response” value ([2]; Experiment 1, 0.390625 μg/ml) was 1.520% and the “Fold increase over negative control” value ([2]; Experiment 1, 0.390625 μg/ml) was 1.1 fold. For the same compound, the “% 59-0008 Response” value ([2]; Experiment 1, 0.78125 μg/ml) was 10.430%, the “Fold increase over negative control” value ([2]; Experiment 1, 0.78125 μg/ml) was 1.6 fold and the “% 59-0008 Response” value ([2]; Experiment 1, 1.5625 μg/ml) was 36.190%. For the same compound, the “Fold increase over negative control” value ([2]; Experiment 1, 1.5625 μg/ml) was 3.4 fold, the “% 59-0008 Response” value ([2]; Experiment 1, 3.125 μg/ml) was 75.860% and the “Fold increase over negative control” value ([2]; Experiment 1, 3.125 μg/ml) was 6.0 fold. For the same compound, the “% 59-0008 Response” value ([2]; Experiment 1, 6.25 μg/ml) was 150.260%, the “Fold increase over negative control” value ([2]; Experiment 1, 6.25 μg/ml) was 10.9 fold and the “% 59-0008 Response” value ([2]; Experiment 1, 12.5 μg/ml) was 156.230%. For the same compound, the “Fold increase over negative control” value ([2]; Experiment 1, 12.5 μg/ml) was 11.3 fold, the “% 59-0008 Response” value ([2]; Experiment 1, 25 μg/ml) was 200.230% and the “Fold increase over negative control” value ([2]; Experiment 1, 25 μg/ml) was 14.3 fold. The “% 59-0008 Response” value ([2]; Experiment 1, 50 μg/ml) was 44.520%, the “Fold increase over negative control” value ([2]; Experiment 1, 50 μg/ml) was 3.9 fold and the “% 59-0008 Response” value ([2]; Experiment 1, 100 μg/ml) was −15.230%. For the same compound, the “Fold increase over negative control” value ([2]; Experiment 1, 100 μg/ml) was −0.0 fold, the “% 59-0008 Response” value ([2]; Experiment 1, 200 μg/ml) was −15.140% and the “Fold increase over negative control” value ([2]; Experiment 1, 200 μg/ml) was −0.0 fold.

In the case of `CC[C@H](C)C(=O)O[C@H]1CCC=C2C=C[C@H](C)[C@H](CC[C@@H]3C[C@@H](O)CC(=O)O3)[C@H]21` [Mevastatin, mevastatin], the “dose-dependent stimulatory effect in control assays” value [1] was “not in control assays”, the “dose-dependent stimulatory effect in the ABA assay” value [2] was “dose-dependent stimulatory effect” and the “% 59-0008 Response” value ([2]; Experiment 1, 0.195312 μg/ml) was 25.840%. The “Fold increase over negative control” value ([2]; Experiment 1, 0.195312 μg/ml) was 2.144 fold, the “% 59-0008 Response” value ([2]; Experiment 1, 0.390625 μg/ml) was 15.650% and the “Fold increase over negative control” value ([2]; Experiment 1, 0.390625 μg/ml) was 1.693 fold. For the same compound, the “% 59-0008 Response” value ([2]; Experiment 1, 0.78125 μg/ml) was 34.520%, the “Fold increase over negative control” value ([2]; Experiment 1, 0.78125 μg/ml) was 2.528 fold and the “% 59-0008 Response” value ([2]; Experiment 1, 1.5625 μg/ml) was 47.630%. The “Fold increase over negative control” value ([2]; Experiment 1, 1.5625 μg/ml) was 3.103 fold, the “% 59-0008 Response” value ([2]; Experiment 1, 3.125 μg/ml) was 99.670% and the “Fold increase over negative control” value ([2]; Experiment 1, 3.125 μg/ml) was 5.413 fold. For the same compound, the “% 59-0008 Response” value ([2]; Experiment 1, 6.25 μg/ml) was 140.260%, the “Fold increase over negative control” value ([2]; Experiment 1, 6.25 μg/ml) was 7.210 fold and the “% 59-0008 Response” value ([2]; Experiment 1, 12.5 μg/ml) was 164.730%. The “Fold increase over negative control” value ([2]; Experiment 1, 12.5 μg/ml) was 8.293 fold, the “% 59-0008 Response” value ([2]; Experiment 1, 25 μg/ml) was 152.690% and the “Fold increase over negative control” value ([2]; Experiment 1, 25 μg/ml) was 7.760 fold. The “% 59-0008 Response” value ([2]; Experiment 1, 50 μg/ml) was 153.110%, the “Fold increase over negative control” value ([2]; Experiment 1, 50 μg/ml) was 7.779 fold and the “% 59-0008 Response” value ([2]; Experiment 1, 100 μg/ml) was 12.460%. The “Fold increase over negative control” value ([2]; Experiment 1, 100 μg/ml) was 1.552 fold, the “% 59-0008 Response” value ([2]; Experiment 1, 200 μg/ml) was −1.600% and the “Fold increase over negative control” value ([2]; Experiment 1, 200 μg/ml) was 0.929 fold. The “% 59-0008 Response” value [2, 4] was 2.880%, the “Fold increase over negative control” value [2, 4] was 1.1 fold and the “% 59-0008 Response” value [2, 5] was −0.090%. The “Fold increase over negative control” value [2, 5] was 0.9 fold, the “% 59-0008 Response” value [2, 6] was 0.960% and the “Fold increase over negative control” value [2, 6] was 1.0 fold. For the same compound, the “% 59-0008 Response” value [2, 7] was 2.370%, the “Fold increase over negative control” value [2, 7] was 1.1 fold and the “% 59-0008 Response” value [2, 8] was 9.780%. The “Fold increase over negative control” value [2, 8] was 1.6 fold, the “% 59-0008 Response” value [2, 9] was 10.970% and the “Fold increase over negative control” value [2, 9] was 1.7 fold. For the same compound, the “% 59-0008 Response” value [2, 10] was 36.210%, the “Fold increase over negative control” value [2, 10] was 3.4 fold and the “% 59-0008 Response” value [2, 11] was 66.010%. For the same compound, the “Fold increase over negative control” value [2, 11] was 5.3 fold, the “% 59-0008 Response” value [2, 12] was 71.630% and the “Fold increase over negative control” value [2, 12] was 5.7 fold. For the same compound, the “% 59-0008 Response” value [2, 13] was 97.420%, the “Fold increase over negative control” value [2, 13] was 7.4 fold and the “% 59-0008 Response” value ([2]; Experiment 2, 100 μM, 39 μg/ml) was 88.860%. The “Fold increase over negative control” value ([2]; Experiment 2, 100 μM, 39 μg/ml) was 6.9 fold and the “inhibition of bone resorption in murine calvariae in vitro” value [3] was “inhibits bone resorption”.
